Test results reported in PMC7824897, “Selection of the First ^99mTc-Labelled Somatostatin Receptor Subtype 2 Antagonist for Clinical Translation—Preclinical Assessment of Two Optimized Candidates” (Pharmaceuticals, 2020).
Where a SMILES comes first, the peptide text is derived from it. Bridges are numbered along the chain shown (N, C = ends). [ ]: non-standard residue; d: D form. The star is where a group is joined. dPhe(4-NHCONH2) = NC(=O)Nc1ccc(C[C@@H](N)C(=O)O)cc1; Phe(4-Cl) = N[C@@H](Cc1ccc(Cl)cc1)C(=O)O; X1 = NCCNCC(CNCCN)C(=O)*

Assays:
[1] = format: physicochemical; conditions: pH 7.4
Experimental: Determination of the distribution coefficient (log D) was performed by the shake-flask method in 1:1 mixture of octanol/Phosphate buffered saline (PBS). Then, 50 µL of [^99mTc]Tc-TECANT-1 or [^99mTc]Tc-TECANT-2 solution was diluted up to 500 µL with PBS (pH 7.4; 8 mM phosphate). Next, 20 µL of this solution was added to six eppendorf tubes, each containing 500 µL octanol and 480 µL PBS. The samples were vortexed for 15 min at 1400 rpm followed by centrifugation for 2 min at 4500 rpm. Aliquots of 100 µL from each phase were taken and measured in a γ-counter. The log D was calculated as the average of the logarithmic values (n = 3, six technical replicates) of the ratio between the radioactivity in the octanol and the PBS phase.

[2] = molecular target: T1, HEK-SST2 cells (human SST2 receptor) (Homo sapiens, UniProt P30874); test: Dissociation of cell-surface bound radiotracer with or without competitor; format: cell-based
T1 construct: expressed in transfected cells; host or cells: HEK293 (HEK-SST2), provided by Prof; Stefan Schulz, Jena University Hospital

[3] = molecular target: T1, HEK-SST2 cells (human SST2 receptor); test: Internalization and cell-surface binding in HEK-SST2 cells; format: cell-based
[4] = set-up: species or system human
Text: To account for various possible locations of the tumour, we used two S-values. One was the value for the liver and is representative for the liver lesions. Other was the “average abdominal S-value”, which was the average S-value for the following organs: stomach, liver, gallbladder, spleen, pancreas, small intestine, kidneys, large intestine, and adrenal glands. Estimated dose to various organs, average total body dose and effective dose are summarized in Table 3 for both radiotracers and two typical tumour locations.
Dosimetric calculations were based on the biodistribution of [^99mTc]Tc-TECANT-1 and [^99mTc]Tc-TECANT-2 (Table 3). […] Percent of injected activity per organ in a human model was evaluated according to the animal data extrapolation model:(2) (%IA/organ)human=[(%IA/g)mouse×Mmouse(g)]×(m(g)/M(kg))human
Here m is the organ mass and M is the total body weight of mouse or human. Average total weight of the mouse was measured, while human phantom has the total weight of 73 kg. The %IA/g and %IA/organ is the percentage of the injected activity concentration (i.e., per gram of tissue) and per organ, respectively. For the tumour, we assumed that the percent of injected activity uptake into the tumour is the same for mouse and human.
Subsequently, percentage of the injected activity per organ was folded with the decay curve of ^99mTc and interpolated with the exponential function. The interpolation function was used to estimate initial %ID/organ and the time-integrated activity concentration (TIAC). Absorbed dose per injected activity for various organs was calculated with the TIAC factors and S-values for a standard person from the OpenDose project. Effective dose was evaluated according to the ICRP 103 recommendations.
We also assumed that the remaining activity from the organs and tumour ends up in the bladder.

in vivo = conditions: female, mouse, 20 pmol, total radioactivity
[5] = athymic nude-Foxn1^nu/Foxn1^+, Biodistribution Heart
[6] = athymic nude-Foxn1^nu/Foxn1^+, Biodistribution Liver
[7] = athymic nude-Foxn1^nu/Foxn1^+, Biodistribution Lung
[8] = athymic nude-Foxn1^nu/Foxn1^+, Biodistribution Pancreas
[9] = athymic nude-Foxn1^nu/Foxn1^+, Biodistribution Spleen
[10] = athymic nude-Foxn1nu/Foxn1+, Biodistribution Adrenals
[11] = athymic nude-Foxn1nu/Foxn1+, Biodistribution Blood
[12] = athymic nude-Foxn1nu/Foxn1+, Biodistribution Bone
[13] = athymic nude-Foxn1nu/Foxn1+, Biodistribution HEK-SST2 (+) tumour uptake
[14] = athymic nude-Foxn1nu/Foxn1+, Biodistribution Intestine
[15] = athymic nude-Foxn1nu/Foxn1+, Biodistribution Kidneys
[16] = athymic nude-Foxn1nu/Foxn1+, Biodistribution Muscle
[17] = athymic nude-Foxn1nu/Foxn1+, Biodistribution Pituitary
[18] = athymic nude-Foxn1nu/Foxn1+, Biodistribution Stomach

T1 sequence (P30874 whole entry): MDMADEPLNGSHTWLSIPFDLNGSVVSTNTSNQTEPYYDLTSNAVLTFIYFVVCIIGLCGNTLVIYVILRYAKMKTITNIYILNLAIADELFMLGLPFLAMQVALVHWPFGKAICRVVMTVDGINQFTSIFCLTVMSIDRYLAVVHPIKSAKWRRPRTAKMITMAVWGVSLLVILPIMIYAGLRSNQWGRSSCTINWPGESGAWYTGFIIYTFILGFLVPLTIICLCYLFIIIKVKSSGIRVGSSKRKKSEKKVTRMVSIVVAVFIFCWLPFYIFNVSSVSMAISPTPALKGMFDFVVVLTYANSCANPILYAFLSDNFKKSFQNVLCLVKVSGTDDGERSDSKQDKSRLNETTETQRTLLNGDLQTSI

logD [1]: -2.53 ± 0.19 | fraction dissociated ([2]; HEK-SST2 cells, at 2 h/37 °C): < 30% | estimated dissociation half-life ([2]; absence of competitor): 98 min | total binding remaining (dissociation assay) ([2]; after 4 h, 37 °C, absence of competitor): 58.8 ± 3.3% | estimated dissociation half-life ([2]; presence of competitor): 19 min | bound fraction still remaining in the cells ([2]; presence of excess of the competitor, 37 °C): 7.9 ± 2.2% | internalization (internalized fraction) ([3]; 30 min, 37 °C): 4.1 ± 0.1% | internalization (internalized fraction) ([3]; 4 h, 37 °C): 13.4 ± 1.7% | cell surface binding ([3]; 4 h, 37 °C, % of total radioactivity added): 50.7 ± 1.7% | cellular uptake ([3]; at 2 h/37 °C): > 50% | Average total body dose [4]: 3.2 μGy/MBq | Dose Bone [4]: 3.9 μGy/MBq | Dose Muscle [4]: 2.4 μGy/MBq | Dose Red marrow [4]: 3.3 μGy/MBq | Dose Small intestine wall [4]: 1.9 μGy/MBq | biological half-life of clearance of remaining activity (rest of the body) to the bladder [4]: 9.7 h | effective dose [4]: 4.9 mSv | tissue uptake at 1 h (in vivo; [5]): 0.71 ± 0.1 %ID/g | tissue uptake at 4 h (in vivo; [5]): 0.24 ± 0.06 %ID/g | tissue uptake at 24 h (in vivo; [5]): 0.05 ± 0.02 %ID/g | tissue uptake at 1 h (in vivo; [6]): 3.13 ± 0.43 %ID/g | tissue uptake at 4 h (in vivo; [6]): 1.9 ± 0.41 %ID/g | tissue uptake at 24 h (in vivo; [6]): 0.6 ± 0.1 %ID/g | tissue uptake at 1 h (in vivo; [7]): 8.94 ± 3.92 %ID/g | tissue uptake at 4 h (in vivo; [7]): 3.07 ± 1.16 %ID/g | tissue uptake at 24 h (in vivo; [7]): 0.26 ± 0.04 %ID/g | tissue uptake at 1 h (in vivo; [8]): 47.8 ± 7.86 %ID/g | tissue uptake at 4 h (in vivo; [8]): 16.9 ± 3.97 %ID/g | tissue uptake at 24 h (in vivo; [8]): 1.08 ± 0.19 %ID/g | tissue uptake at 1 h (in vivo; [9]): 1.3 ± 0.41 %ID/g | tissue uptake at 4 h (in vivo; [9]): 0.57 ± 0.11 %ID/g | tissue uptake at 24 h (in vivo; [9]): 0.2 ± 0.01 %ID/g | tissue uptake at 1 h (in vivo; [10]): 7.11 ± 3.04 %ID/g | tissue uptake at 4 h (in vivo; [10]): 4.36 ± 1.88 %ID/g | tissue uptake at 24 h (in vivo; [10]): 0.85 ± 0.18 %ID/g | tissue uptake at 1 h (in vivo; [11]): 0.79 ± 0.09 %ID/g | tissue uptake at 4 h (in vivo; [11]): 0.23 ± 0.05 %ID/g | tissue uptake at 24 h (in vivo; [11]): 0.03 %ID/g | tissue uptake at 1 h (in vivo; [12]): 1.41 ± 0.77 %ID/g | tissue uptake at 4 h (in vivo; [12]): 0.59 ± 0.23 %ID/g | tissue uptake at 24 h (in vivo; [12]): 0.35 ± 0.07 %ID/g | tissue uptake at 1 h (in vivo; [13]): 21 ± 3.92 %ID/g | tissue uptake at 4 h (in vivo; [13]): 26 ± 1.33 %ID/g | tissue uptake at 24 h (in vivo; [13]): 19 ± 2 %ID/g | tissue uptake at 4 h (in vivo; athymic nude-Foxn1nu/Foxn1+, Biodistribution HEK-SST2 (−) tumour uptake): 0.88 ± 0.37 %ID/g | tissue uptake at 1 h (in vivo; [14]): 6.48 ± 4.37 %ID/g | tissue uptake at 4 h (in vivo; [14]): 2.4 ± 1.9 %ID/g | tissue uptake at 24 h (in vivo; [14]): 0.31 ± 0.08 %ID/g | tissue uptake at 1 h (in vivo; [15]): 16.3 ± 1.83 %ID/g | tissue uptake at 4 h (in vivo; [15]): 12.6 ± 2.54 %ID/g | tissue uptake at 24 h (in vivo; [15]): 2.42 ± 0.2 %ID/g | tissue uptake at 1 h (in vivo; [16]): 0.23 ± 0.05 %ID/g | tissue uptake at 4 h (in vivo; [16]): 0.12 ± 0.06 %ID/g | tissue uptake at 24 h (in vivo; [16]): 0.05 ± 0.01 %ID/g | tissue uptake at 1 h (in vivo; [17]): 9.71 ± 2.81 %ID/g | tissue uptake at 4 h (in vivo; [17]): 6.66 ± 3.67 %ID/g | tissue uptake at 24 h (in vivo; [17]): 4.35 ± 2.87 %ID/g | tissue uptake at 1 h (in vivo; [18]): 36.5 ± 7.89 %ID/g | tissue uptake at 4 h (in vivo; [18]): 13.6 ± 3.86 %ID/g | tissue uptake at 24 h (in vivo; [18]): 1.42 ± 0.27 %ID/g
SMILES: C[C@@H](O)[C@@H]1NC(=O)[C@H](CCCCN)NC(=O)[C@@H](Cc2ccc(NC(N)=O)cc2)NC(=O)[C@H](Cc2ccc(O)cc2)NC(=O)[C@H](NC(=O)[C@H](Cc2ccc(Cl)cc2)NC(=O)C(CNCCN)CNCCN)CSSC[C@@H](C(=O)N[C@H](Cc2ccc(O)cc2)C(N)=O)NC1=O [[^99mTc]Tc-TECANT-1, metal not drawn] (X1-[Phe(4-Cl)][dC]Y[dPhe(4-NHCONH2)]KTC[dY]-NH2; disulfide 2-7)
